Experimental data reported in patent US9833454B2, “Difluoromethoxy compound with low bioactivation potential for the reduction of beta-amyloid production” (BRISTOL-MYERS SQUIBB COMPANY, priority 2014, dated 2017).

How the values were obtained:
[1] = In vitro metabolite elucidation in Aroclor-treated rat liver S9 (with NADPH and GSH); format: in vitro ADME
Procedure: The incubation mixtures (0.5 mL) contained N2-(3-(DIFLUOROMETHOXY)-4-(3-METHYL-1H-1,2,4-TRIAZOL-1-YL)PHENYL)-7-(4-FLUOROPHENYL)-N4,5,5-[…]-6,7-DIHYDRO-5H-CYCLOPENTA[D]PYRIMIDINE-2,4-DIAMINE (10 μM), liver S9 fractions from Aroclor 1254-treated rats (Molecular Toxicology, Boone, N.C.) (2 mg protein/mL), and glutathione (GSH, 5 mM) in a 100 mM potassium phosphate buffer (pH 7.4). The final concentration of acetonitrile in the S9 fraction incubations was 0.5% (v/v). The reactions were initiated by adding β-nicotinamide adenine dinucleotide 2′-phosphate reduced tetrasodium salt (NADPH, final concentration as 1 mM) and the incubations were carried out at 37° C. […] The filtrate was collected in a 96-well plate and evaporated to approximately 25% of the original volume under nitrogen gas, and the remaining aqueous phase was analyzed using high-performance liquid chromatography with ultraviolet (UV) spectroscopic and mass spectrometric detection (LC-UV/MS) under the conditions described in Section 1.2.
Bioanalytical methods were as follows: The LC-UV/MS system consisted of a Waters Acquity binary solvent manager, a sample manager, a photodiode array (PDA) detector, and a Xevo Q-TOF mass spectrometer (Waters Corporation, Milford, Mass.). […] Column effluent was analyzed in-line using a PDA detector followed by the mass spectrometer. […]

CYP1A2 = molecular target: T1, CYP1A2 (Homo sapiens, UniProt P05177); assay: Inhibition of recombinant CYP enzymes (rCYP), CYP1A2
T1 sequence (P05177 1-516): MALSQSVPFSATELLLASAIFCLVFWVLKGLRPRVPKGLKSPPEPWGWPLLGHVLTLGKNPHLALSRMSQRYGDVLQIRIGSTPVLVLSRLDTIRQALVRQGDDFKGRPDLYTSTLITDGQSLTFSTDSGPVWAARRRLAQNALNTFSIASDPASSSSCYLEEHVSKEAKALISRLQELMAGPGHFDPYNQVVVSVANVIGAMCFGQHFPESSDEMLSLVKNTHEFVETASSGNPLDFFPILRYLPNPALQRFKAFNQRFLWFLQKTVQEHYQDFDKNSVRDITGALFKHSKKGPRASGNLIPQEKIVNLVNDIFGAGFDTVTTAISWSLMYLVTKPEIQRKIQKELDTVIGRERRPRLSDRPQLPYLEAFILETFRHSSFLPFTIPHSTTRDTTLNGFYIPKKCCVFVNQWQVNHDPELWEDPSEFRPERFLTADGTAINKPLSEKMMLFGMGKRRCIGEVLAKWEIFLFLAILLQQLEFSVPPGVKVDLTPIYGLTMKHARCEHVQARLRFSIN

CYP2B6 [2] = molecular target: T2, CYP2B6 (Homo sapiens, UniProt P20813); assay: Inhibition of CYP enzymes in human liver microsomes (HLM), CYP2B6; format: in vitro ADME
T2 sequence (P20813 1-491): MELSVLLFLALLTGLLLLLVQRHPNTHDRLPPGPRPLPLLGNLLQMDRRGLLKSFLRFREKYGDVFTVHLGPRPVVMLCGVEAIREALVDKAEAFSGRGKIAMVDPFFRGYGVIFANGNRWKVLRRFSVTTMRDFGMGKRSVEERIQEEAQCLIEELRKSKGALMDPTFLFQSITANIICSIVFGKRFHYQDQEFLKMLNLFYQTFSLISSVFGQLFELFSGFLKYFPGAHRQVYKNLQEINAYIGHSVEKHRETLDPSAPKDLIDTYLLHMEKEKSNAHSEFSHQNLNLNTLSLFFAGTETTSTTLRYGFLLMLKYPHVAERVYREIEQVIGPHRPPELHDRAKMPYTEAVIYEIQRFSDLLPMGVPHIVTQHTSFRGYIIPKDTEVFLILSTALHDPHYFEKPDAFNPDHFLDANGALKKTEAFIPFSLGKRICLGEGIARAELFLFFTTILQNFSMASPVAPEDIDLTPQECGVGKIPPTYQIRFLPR

CYP2B6 [3] = molecular target: T2, CYP2B6; assay: Inhibition of recombinant CYP enzymes (rCYP), CYP2B6; format: in vitro ADME; details: average of two experiments, read-out: rCYP IC50 2B6

- Estimated Percent (%) of The Original Parent Level (P) Based on UV Peak Areas ([1]; 10 μM, 30-minute incubation with NADPH and GSH, UV 300 nm): 76%
- GSH Adducts ([1]; NADPH and GSH): No GSH conjugates were detected
- IC50 (CYP1A2): > 20 µM
- IC50 (CYP2B6 [2]; 0 min preincubation, read-out: IC50-0 min 2B6): > 40 µM
- IC50 Ratio 2B6 (CYP2B6 [2]; IC50 shift 0 vs 30 min preincubation (TDI ratio)): 1.0
- IC50 (CYP2B6 [2]; read-out: IC50-30 min 2B6, 30 min preincubation with NADPH): > 40 µM
- IC50 (CYP2B6 [3]): > 20 µM
Structure (SMILES): CNc1nc(Nc2ccc(-n3cnc(C)n3)c(OC(F)F)c2)nc2c1C(C)(C)CC2c1ccc(F)cc1 (single isomer, unassigned) [Enantiomer 1, N2-(3-(difluoromethoxy)-4-(3-methyl-1H-1,2,4-triazol-1-yl)phenyl)-7-(4-fluorophenyl)-N4,5,5-trimethyl-6,7-dihydro-5H-cyclopenta[d]pyrimidine-2,4-diamine]
